“Also recorded” adds a separate entry of the source.
Legend:
SH-SY5Y mito-QC cells = test: Mitophagy (mito-QC) live imaging in SH-SY5Y cells; assay type: cell-based, human
Experimental: SH-SY5Y cells stably expressing mCherry-GFP-Fis1101-152 reporter (SH-SY5Y mito-QC) kindly provided by Dr I Ganley (MRC PPU, Dundee) were cultured in DMEM/F12 media supplemented with 1% L-glutamine, 1% penicillin/streptomycin, 1% non-essential amino acids, 10% fetal bovine serum at 37 °C and 5% CO2.
For inhibitor studies, live imaging was applied to mitophagy puncta analysis in SH-SY5Y mito-QC cells. SH-SY5Y mito-QC cells were plated overnight at 7000 cells/well into black walled PhenoPlate 96-well microplates in DMEM/F-12 (phenol red free) supplemented as above. SH-SY5Y mito-QC cells were incubated with NucBlue™ live stain for 20 mins then washed. […] Cells were live imaged using the Operetta CLS Type HH1600 (optical mode set to confocal, 40x water objective) at timepoints 0 h, 4 h, 20 h, 24 h, 48 h and 72 h. Images were acquired using the following channel settings: mCherry; excitation 530/60 nm, emission 570/650 nm, GFP; excitation 460/90 nm, emission 500/650 nm, Hoechst; excitation 355/85 nm, emission 430/500 nm. For all conditions tested, quantification of mitophagy was performed from three independent experiments (with three technical replicates capturing 11 fields of views, 6 z-stacks).
Image Quantification: For analysis of mitophagy, images were processed with the Harmony analysis software using the “SH-SY5Y-mito-QC_analysis 2” sequence. For mitolysosome identification the following analysis steps were performed: (1) Identification of the cell nuclei using Hoechst staining, (2) Identification of the cell cytoplasm using a deep phase contrast (DPC) image, (3) Identification of the mitochondrial network, using the Ser-Bright function on the mCherry channel within the cytoplasm, (4) Mitochondrial network partitioning using the FindSpots function, (5) Identification of mitophagic puncta with the partitioned mitochondrial network, using an mCherry:GFP ratio threshold of mean >+3 standard deviations from the 24 h DMSO only treated cells.

[1] = Mouse blood and prefrontal cortex microdialysis pharmacokinetics (Kpu,u); assay type: in vivo; conditions: single 10 mg/kg oral dose, at the 60-min time point
Experimental: Mouse Kpu,u estimates were calculated from blood and prefrontal cortex compound profiles following oral dosing of 10 or 30 mg/kg by gavage, with sequential blood sampling from the jugular vein and sequential brain interstitial fluid sampling via a microdialysis probe in the prefrontal cortex.

Cathepsin L = Cathepsin L (Homo sapiens, UniProt P07711); test: DUB/cathepsin selectivity biochemical assay; conditions: Supplementary Fig. 6a; read-out: Selectivity vs Cathepsins (IC50), Cath L
USP21 CD = target: T1, USP21 CD (Homo sapiens, UniProt Q9UK80); test: DUB/cathepsin selectivity biochemical assay
T1 construct: USP21 CD

USP28 = USP28 (Homo sapiens, UniProt Q96RU2); test: DUB/cathepsin selectivity biochemical assay
USP10 = USP10 (Homo sapiens, UniProt Q14694); test: DUB/cathepsin selectivity biochemical assay
ATXN3L = ATXN3L (Homo sapiens, UniProt Q9H3M9); test: DUB/cathepsin selectivity biochemical assay
USP19 = USP19 (Homo sapiens, UniProt O94966); test: DUB/cathepsin selectivity biochemical assay
Sequence of USP19 (O94966 whole entry, species assumed): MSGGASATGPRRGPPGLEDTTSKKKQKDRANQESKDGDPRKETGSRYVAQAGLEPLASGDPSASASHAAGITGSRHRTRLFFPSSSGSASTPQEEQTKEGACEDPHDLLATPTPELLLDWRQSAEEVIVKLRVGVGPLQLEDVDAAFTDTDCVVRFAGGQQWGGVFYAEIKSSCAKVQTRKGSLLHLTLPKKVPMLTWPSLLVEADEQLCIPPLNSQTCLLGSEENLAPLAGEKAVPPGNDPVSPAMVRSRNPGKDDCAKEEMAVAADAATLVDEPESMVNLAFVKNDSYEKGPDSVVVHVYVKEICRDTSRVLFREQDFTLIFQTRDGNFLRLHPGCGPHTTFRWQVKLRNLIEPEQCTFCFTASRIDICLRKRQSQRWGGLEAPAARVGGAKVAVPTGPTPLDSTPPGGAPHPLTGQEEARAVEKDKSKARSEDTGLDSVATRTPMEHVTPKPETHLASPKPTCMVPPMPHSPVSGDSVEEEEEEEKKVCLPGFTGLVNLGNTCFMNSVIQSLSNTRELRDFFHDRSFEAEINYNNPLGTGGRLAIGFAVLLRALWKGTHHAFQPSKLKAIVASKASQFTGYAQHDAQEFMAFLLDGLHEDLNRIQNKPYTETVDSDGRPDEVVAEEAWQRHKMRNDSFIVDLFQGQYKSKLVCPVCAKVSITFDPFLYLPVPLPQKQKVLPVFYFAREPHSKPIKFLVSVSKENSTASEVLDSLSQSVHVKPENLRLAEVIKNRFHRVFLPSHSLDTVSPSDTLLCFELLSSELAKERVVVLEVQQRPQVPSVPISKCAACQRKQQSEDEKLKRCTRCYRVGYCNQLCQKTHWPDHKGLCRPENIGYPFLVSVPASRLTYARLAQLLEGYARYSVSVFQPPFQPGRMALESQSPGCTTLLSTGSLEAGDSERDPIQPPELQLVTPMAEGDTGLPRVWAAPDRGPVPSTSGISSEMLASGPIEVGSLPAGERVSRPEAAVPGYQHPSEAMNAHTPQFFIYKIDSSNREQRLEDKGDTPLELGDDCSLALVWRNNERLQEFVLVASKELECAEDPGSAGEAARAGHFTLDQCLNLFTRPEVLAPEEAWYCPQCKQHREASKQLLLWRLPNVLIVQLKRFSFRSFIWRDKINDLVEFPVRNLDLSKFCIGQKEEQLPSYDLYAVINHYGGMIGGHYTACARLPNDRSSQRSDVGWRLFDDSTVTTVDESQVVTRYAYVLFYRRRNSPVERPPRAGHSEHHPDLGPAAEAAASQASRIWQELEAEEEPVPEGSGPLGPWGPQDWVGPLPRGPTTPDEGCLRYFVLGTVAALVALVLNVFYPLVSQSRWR

USPL1 = USPL1 (Homo sapiens, UniProt Q5W0Q7); test: DUB/cathepsin selectivity biochemical assay
Sequence of USPL1 (Q5W0Q7 whole entry, species assumed): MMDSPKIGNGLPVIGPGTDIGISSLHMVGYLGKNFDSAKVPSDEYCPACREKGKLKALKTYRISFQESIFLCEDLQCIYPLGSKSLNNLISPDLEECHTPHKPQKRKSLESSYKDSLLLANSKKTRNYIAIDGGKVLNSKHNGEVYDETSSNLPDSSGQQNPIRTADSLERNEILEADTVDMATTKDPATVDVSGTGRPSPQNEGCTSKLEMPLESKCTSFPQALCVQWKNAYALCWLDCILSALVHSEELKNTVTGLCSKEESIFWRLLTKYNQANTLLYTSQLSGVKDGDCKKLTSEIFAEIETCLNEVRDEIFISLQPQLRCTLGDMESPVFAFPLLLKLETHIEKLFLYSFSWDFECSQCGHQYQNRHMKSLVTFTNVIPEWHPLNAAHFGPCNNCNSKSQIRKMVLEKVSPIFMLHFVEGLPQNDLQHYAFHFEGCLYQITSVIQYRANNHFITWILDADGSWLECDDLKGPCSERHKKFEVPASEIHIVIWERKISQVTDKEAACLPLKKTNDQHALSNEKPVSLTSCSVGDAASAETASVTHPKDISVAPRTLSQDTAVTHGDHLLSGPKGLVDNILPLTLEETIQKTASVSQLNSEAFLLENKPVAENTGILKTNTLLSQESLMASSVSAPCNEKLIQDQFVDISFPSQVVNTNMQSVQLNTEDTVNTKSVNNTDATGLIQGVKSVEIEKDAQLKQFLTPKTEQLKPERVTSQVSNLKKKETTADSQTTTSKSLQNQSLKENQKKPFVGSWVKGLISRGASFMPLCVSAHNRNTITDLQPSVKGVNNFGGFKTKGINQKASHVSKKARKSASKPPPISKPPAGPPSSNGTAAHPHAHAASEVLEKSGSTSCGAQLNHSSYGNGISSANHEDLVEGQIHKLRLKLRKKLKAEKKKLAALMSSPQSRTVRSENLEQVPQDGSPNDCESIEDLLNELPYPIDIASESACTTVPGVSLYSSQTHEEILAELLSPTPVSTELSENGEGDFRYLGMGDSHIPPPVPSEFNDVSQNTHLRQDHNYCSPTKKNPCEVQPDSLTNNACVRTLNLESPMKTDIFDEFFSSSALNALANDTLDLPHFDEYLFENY

USP24 = USP24 (Homo sapiens, UniProt Q9UPU5); test: DUB/cathepsin selectivity biochemical assay
OTUD6A = OTUD6A (Homo sapiens, UniProt Q7L8S5); test: DUB/cathepsin selectivity biochemical assay
CYLD = CYLD (Homo sapiens, UniProt Q9NQC7); test: DUB/cathepsin selectivity biochemical assay
CEZANNE1 = CEZANNE1 (Homo sapiens, UniProt Q6GQQ9); test: DUB/cathepsin selectivity biochemical assay
Sequence of CEZANNE1 (Q6GQQ9 whole entry): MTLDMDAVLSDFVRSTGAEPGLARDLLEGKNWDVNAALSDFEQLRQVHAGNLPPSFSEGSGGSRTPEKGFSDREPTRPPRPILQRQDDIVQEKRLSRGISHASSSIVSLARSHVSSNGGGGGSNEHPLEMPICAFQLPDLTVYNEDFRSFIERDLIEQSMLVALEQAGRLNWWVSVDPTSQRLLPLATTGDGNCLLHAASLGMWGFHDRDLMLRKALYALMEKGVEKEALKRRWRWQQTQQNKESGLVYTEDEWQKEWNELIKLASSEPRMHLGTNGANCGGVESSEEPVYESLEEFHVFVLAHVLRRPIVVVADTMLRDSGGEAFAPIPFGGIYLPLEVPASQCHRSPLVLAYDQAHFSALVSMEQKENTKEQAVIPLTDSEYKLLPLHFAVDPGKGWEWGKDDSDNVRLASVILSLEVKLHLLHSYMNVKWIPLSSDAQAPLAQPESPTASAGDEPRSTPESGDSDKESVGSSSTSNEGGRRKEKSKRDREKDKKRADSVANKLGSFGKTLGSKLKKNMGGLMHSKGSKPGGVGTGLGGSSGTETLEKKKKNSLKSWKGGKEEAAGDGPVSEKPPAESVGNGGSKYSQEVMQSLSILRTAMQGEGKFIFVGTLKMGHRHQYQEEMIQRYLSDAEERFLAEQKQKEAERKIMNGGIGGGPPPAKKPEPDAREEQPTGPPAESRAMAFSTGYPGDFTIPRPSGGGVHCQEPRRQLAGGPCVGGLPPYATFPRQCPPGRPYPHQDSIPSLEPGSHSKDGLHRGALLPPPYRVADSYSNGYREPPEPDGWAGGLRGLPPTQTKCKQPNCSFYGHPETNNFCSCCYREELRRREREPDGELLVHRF

SENP2 CD = target: T2, SENP2 CD (Homo sapiens, UniProt Q9HC62); test: DUB/cathepsin selectivity biochemical assay
T2 construct: SENP2 CD

USP4 = USP4 (Homo sapiens, UniProt Q13107); test: DUB/cathepsin selectivity biochemical assay
OTUD1 CD = target: T3, OTUD1 CD (Homo sapiens, UniProt Q5VV17); test: DUB/cathepsin selectivity biochemical assay
T3 construct: OTUD1 CD

USP9x = USP9x (Homo sapiens, UniProt Q93008); test: DUB/cathepsin selectivity biochemical assay
SENP1 CD = target: T4, SENP1 CD (Homo sapiens, UniProt Q9P0U3); test: DUB/cathepsin selectivity biochemical assay
T4 construct: SENP1 CD

BAP1 = BAP1 (Homo sapiens, UniProt Q92560); test: DUB/cathepsin selectivity biochemical assay
Sequence of BAP1 (Q92560 whole entry): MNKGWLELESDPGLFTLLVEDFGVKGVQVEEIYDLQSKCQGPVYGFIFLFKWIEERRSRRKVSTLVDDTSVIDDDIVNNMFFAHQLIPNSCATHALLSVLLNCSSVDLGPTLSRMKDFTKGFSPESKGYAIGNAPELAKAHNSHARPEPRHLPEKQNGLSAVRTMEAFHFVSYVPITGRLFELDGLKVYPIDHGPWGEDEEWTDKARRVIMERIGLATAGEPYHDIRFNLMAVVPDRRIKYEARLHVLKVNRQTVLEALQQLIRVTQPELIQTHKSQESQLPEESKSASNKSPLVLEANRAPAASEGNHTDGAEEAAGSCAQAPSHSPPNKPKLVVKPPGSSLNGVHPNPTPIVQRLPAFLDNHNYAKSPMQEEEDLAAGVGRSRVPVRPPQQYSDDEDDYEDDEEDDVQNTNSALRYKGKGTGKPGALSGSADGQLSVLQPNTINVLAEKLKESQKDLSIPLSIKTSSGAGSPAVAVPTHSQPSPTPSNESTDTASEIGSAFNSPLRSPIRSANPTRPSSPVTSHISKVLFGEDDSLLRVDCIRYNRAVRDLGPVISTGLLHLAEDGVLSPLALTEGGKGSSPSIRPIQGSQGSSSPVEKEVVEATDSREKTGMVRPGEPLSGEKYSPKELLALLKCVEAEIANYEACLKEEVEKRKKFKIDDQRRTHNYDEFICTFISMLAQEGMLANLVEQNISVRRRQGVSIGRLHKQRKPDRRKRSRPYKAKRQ

OTUD3 CD = target: T5, OTUD3 CD (Homo sapiens, UniProt Q5T2D3); test: DUB/cathepsin selectivity biochemical assay
T5 construct: OTUD3 CD

USP20 = USP20 (Homo sapiens, UniProt Q9Y2K6); test: DUB/cathepsin selectivity biochemical assay
SENP6 = SENP6 (Homo sapiens, UniProt Q9GZR1); test: DUB/cathepsin selectivity biochemical assay
Sequence of SENP6 (Q9GZR1 whole entry, species assumed): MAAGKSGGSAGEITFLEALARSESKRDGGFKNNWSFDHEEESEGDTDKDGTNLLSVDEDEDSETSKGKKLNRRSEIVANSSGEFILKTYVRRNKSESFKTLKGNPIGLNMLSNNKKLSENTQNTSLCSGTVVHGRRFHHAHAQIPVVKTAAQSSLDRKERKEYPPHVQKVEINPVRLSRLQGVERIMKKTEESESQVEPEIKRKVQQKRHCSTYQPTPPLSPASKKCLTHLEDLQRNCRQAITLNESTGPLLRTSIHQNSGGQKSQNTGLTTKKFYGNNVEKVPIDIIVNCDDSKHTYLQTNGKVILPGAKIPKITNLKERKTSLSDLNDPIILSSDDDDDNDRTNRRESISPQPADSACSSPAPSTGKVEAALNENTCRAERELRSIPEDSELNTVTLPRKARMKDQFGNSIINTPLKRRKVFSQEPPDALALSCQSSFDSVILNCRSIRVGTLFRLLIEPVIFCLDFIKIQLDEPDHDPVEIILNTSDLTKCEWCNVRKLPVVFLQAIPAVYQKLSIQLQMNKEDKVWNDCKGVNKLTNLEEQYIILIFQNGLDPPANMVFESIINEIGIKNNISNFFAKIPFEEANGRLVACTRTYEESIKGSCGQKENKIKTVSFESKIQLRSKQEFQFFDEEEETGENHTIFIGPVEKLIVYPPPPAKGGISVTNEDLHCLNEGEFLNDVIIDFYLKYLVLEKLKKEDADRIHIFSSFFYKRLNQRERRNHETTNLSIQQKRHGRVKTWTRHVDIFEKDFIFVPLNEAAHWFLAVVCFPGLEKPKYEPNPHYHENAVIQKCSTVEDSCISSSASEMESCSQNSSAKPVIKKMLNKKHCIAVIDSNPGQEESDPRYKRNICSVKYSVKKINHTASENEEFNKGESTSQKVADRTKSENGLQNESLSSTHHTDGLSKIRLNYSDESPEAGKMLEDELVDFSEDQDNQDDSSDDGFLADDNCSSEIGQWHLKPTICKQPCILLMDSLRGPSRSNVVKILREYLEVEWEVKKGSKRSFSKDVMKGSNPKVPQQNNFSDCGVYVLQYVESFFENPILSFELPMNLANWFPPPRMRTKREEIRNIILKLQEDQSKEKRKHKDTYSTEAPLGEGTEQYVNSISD

C[C@@H]1[C@H]2CCN(C(=O)c3ncc(-c4ccnc(C#N)c4)o3)[C@H]2CN1C#N [MTX115325]
Increase in mitophagy (SH-SY5Y mito-QC cells; 37 nM, 72 h, with 0.1 mM A/O as printed): 22%
Maximum increase in mitophagy compared to baseline (SH-SY5Y mito-QC cells; 1 µM, 72 h, with 0.1 mM A/O as printed): 54%
Mitophagy (mito-QC) (SH-SY5Y mito-QC cells; 72 h in combination with sub-maximal A/O): significantly potentiates mitophagy induction; also recorded: concentration-dependent increase in mitophagy
Prefrontal cortex free CMax [1]: 528 nM
IC50 (Cathepsin L): 42.1 µM
IC50 (USP21 CD): 60.7 µM
IC50 (USP28): 106 µM
IC50 (USP10): 107 µM
IC50 (ATXN3L): 173 µM
IC50 (USP19): 278 µM
IC50 (USPL1): > 300 µM
IC50 (USP24): > 300 µM
IC50 (OTUD6A): > 300 µM
IC50 (CYLD): > 300 µM
IC50 (CEZANNE1): > 300 µM
IC50 (SENP2 CD): > 300 µM
IC50 (USP4): > 300 µM
IC50 (OTUD1 CD): > 300 µM
IC50 (USP9x): > 300 µM
IC50 (SENP1 CD): > 300 µM
IC50 (BAP1): > 300 µM
IC50 (OTUD3 CD): > 300 µM
IC50 (USP20): > 300 µM
IC50 (SENP6): > 300 µM
